# Measured values: US20060122279A1, “Hydrophobic polyamine amides as potent lipopolysaccharide sequestrants” (priority 2004, published 2006)
# Several values for one entry are separate records, joined by “and”; a condition that tells them apart may be missing. Identical values can stand only once. Like-named read-outs stand apart in the source and are kept apart here.
# What was measured:
# [1] = assay type: binding, E. coli 0111:B4; settings: for EC50: E. coli 0111:B4 LPS, Tables 1-3, read-out: ED50 (half-maximal effective displacement of BC probe from LPS); for IC50: b47, cis-unsaturated vs saturated alkyl
# Method: Polymyxin B (PMB), a peptide antibiotic known to bind and neutralize LPS^47 serves as the positive control and reference compound for every plate, enabling the quantitative assessment of repeatability and reproducibility (CV and Z′ factors) for the assay. Robotic liquid handling is performed on a Precision 2000 automated microplate pipetting system, programmed using the Precision Power software, Bio-Tek Instruments Inc., VT, USA. Stock solutions of LPS (5 mg/ml; E. coli 0111:B4; procured from Sigma) and BC (500 μM) are prepared in Tris buffer (pH 7.4, 50 mM). 1 ml each of the LPS and BC stocks are mixed and diluted in Tris buffer to a final volume of 100 ml, yielding final concentrations of 50 μg/ml of LPS and 5 μM BC. 40 μl of this BC:LPS mixture is added to each well of the plate using the Precision 2000. Fluorescence measurements are made at 25° C. on a Fluoromax-3 with Micromax Microwell 384-well plate reader, using DataMax software, Jobin Yvon Inc., N.J. The BC excitation wavelength is 580 nm, emission spectra are taken at 620 nm with both emission and excitation monochromator bandpasses set at 5 nm.
# [2] = tested on: murine macrophage J774.A1 cells; assay: Nitric oxide (NO) inhibition in LPS-stimulated J774.A1 cells (Griess); assay type: cell-based; settings: for prevention of LPS-induced NO release from J774.A1 macrophages: in words
# Method: Murine monocytes (J774.A1 cells) produce measurable quantities of NO on exposure to LPS and provide a model for the rapid assessment of compounds to neutralize LPS activity. […] In all experiments, Polymyxin B (PMB), a decapeptide antibiotic, known to bind and neutralize LPS,^29;47;48 is used as a reference compound.
# Nitric oxide production is measured as total nitrite in murine macrophage J774.A1 cells using the Griess reagent system.^53;54 Murine macrophage J774.A1 cells are grown in RPMI-1640 cell-culture medium containing L-glutamine and sodium bicarbonate and supplemented with 10% fetal bovine serum, 1% L-glutamine-penicillin-streptomycin solution, and 200 μg/ml L-arginine at 37° C. in a 5% CO2 atmosphere. Cells are plated at ˜2×10^6/ml in a volume of 40 μl/well, in 384 well, flat-bottomed, cell culture treated microtiter plates until confluency and subsequently stimulated with 100 ng/ml lipopolysaccharide (LPS). Concurrent to LPS stimulation, serially diluted concentrations of test compounds are added to the cell medium and left to incubate overnight for 16 h. Polymyxin B is used as reference compound in each plate. Positive—(LPS stimulation only) and negative-controls (J774.A1 medium only) are included in each experiment. Nitrite concentrations are measured adding 30 μl of supernatant to equal volumes of Griess reagents (50 μl/well; 0.1% NED solution in ddH2O and 1% sulfanilamide, 5% phosphoric acid solution in ddH2O) and incubating for 15 minutes at room temperature in the dark. Absorbance at 535 nm is measured using a Molecular Devices Spectramax M2 multifunction plate reader (Sunnyvale, Calif.). Nitrite concentrations are interpolated from standard curves obtained from serially diluted sodium nitrite standards.
# [3] = tested on: NFκB; assay: NFκB inhibition (LPS-induced); assay type: cell-based; settings: for prevention of LPS-induced NFκβ cytokine release from stimulated lymphocytes: in words
# From the text: A focused library of alkyl or acyl c-substituted lysine-spermine conjugates is synthesized with even carbon-numbered chains of C14 to C20 lengths. […] Furthermore, the data showhigh activity compounds are those with chain lengths between C16 and C20. […] The exemplary compounds L-Lys-ε-(stearoyl)-N^1-spermine, D-Lys-ε-(stearoyl)-N^1-spermine, L-Lys-ε-(octadecanyl)-N^1-spermine and D-Lys-ε-(octadecanyl)—N1-spermine all show high activity for the prevention of LPS-induced NFκβ cytokine release from stimulated lymphocytes. Furthermore, the exemplary compounds L-Lys-ε-(stearoyl)-N^1-spermine, D-Lys-ε-(stearoyl)-N^1-spermine, L-Lys-ε-(octadecanyl)-N^1-spermine and D-Lys-ε-(octadecanyl)-N^1-spermine all show high activity for the prevention of LPS-induced NO release from stimulated lymphocytes.
# [4] = Mus musculus, J774.A1, 16 h, J774.A1 cells, 100 ng/ml LPS, 16 h, Tables 1-3, read-out: NO IC50
# [5] = Table 7 focused library, NO inhibition, read-out: NO
# [6] = Mus musculus, J774.A1, read-out: IC50 (LPS neutralization, NO)
# [7] = J774.A1 cells, 100 ng/ml LPS, 16 h, Tables 1-3, read-out: NO IC50
# [8] = Mus musculus, J774.A1, 16 h, read-out: NO IC50, J774.A1 cells, 100 ng/ml LPS, 16 h, Tables 1-3
Structure (SMILES),EC50 [1],"IC50 [2, 4]","IC50 [2, 5]",further results
"CC(C)C(=O)NCCCCC(N)C(=O)NCCCNCCCCNCCCN [Compound 18, D-Lys-ε-(isopropoyl)-N^1-spermine]",299 µM,> 1000 µM,,
CCCCCCNCCCCC(N)C(=O)NCCCNCCCCNCCCN (stereo not drawn) [Compound 31],7.13 µM,> 1000 µM,,
"CCCCCCCCCCCCCCCCNCCCCC(N)C(=O)NCCCNCCCCNCCCN [Compound 26, L-Lys-ε-(“hexadecyl)-N^1-spermine]",5.6 µM and 5.56 µM,,,"IC50 [1]: 5.6 µM; IC50 ([2]; Mus musculus, J774.A1, Table 7 focused library, NO inhibition, read-out: NO): 3.78 µM; IC50 ([3]; Table 7 focused library, NFκB inhibition, read-out: NFκ B): 0.19 µM"
CCCCCCCCCCCCCCNCCCCCC(=O)NCCCNCCCCNCCCN [Compound 54],,,9.48 µM,
CCCCCCCCCCCCCC(=O)NCCCCCC(=O)NCCCNCCCCNCCCN [Compound 50],,,48.4 µM,
NCCCNCCCCNCCCNC(=O)C(N)CCCCNCC1CCCCC1 (stereo not drawn) [Compound 37],9.8 µM and 9.84 µM,> 1000 µM,,
CCCCCC/C=C/CCCCCCCCCC(=O)NCCCCC(N)C(=O)NCCCNCCCCNCCCN (stereo not drawn) [Compound 10],4.2 µM,,,
"COCCOCC(=O)NCCCCC(N)C(=O)NCCCNCCCCNCCCN [Compound 25, L-Lys-ε-(2-(2-methoxyethoxy)acetoyl)-N^1-spermine]",495 µM,> 1000 µM,,"IC50 [2, 6]: > 1000 µM"
CCCCCCCCCCCCCCCCCCCCNCCCCCC(=O)NCCCNCCCCNCCCN [Compound 57],,,5.02 µM,
"NCCCNCCCCNCCCNC(=O)C(N)CCCCNC(=O)CC1CC2CCC1C2 [Compound 20, D-Lys-ε-(2-norbornaneacetoyl)-N^1-spermine]",16.2 µM,,,
CCCC/C=C\CCCCCCCCCCNCCCCC(N)C(=O)NCCCNCCCCNCCCN (stereo not drawn) [Compound 27],2.59 µM,0.66 µM,,IC50 [1]: 2.6 µM
"CC(C)CNCCCCC(N)C(=O)NCCCNCCCCNCCCN [Compound 35, D-Lys-ε-(3-methylpropyl)-N^1-spermine]",101 µM,72.9 µM,,
"CCCCCCCCCCCCCCCCCCNCCCC[C@@H](N)C(=O)NCCCNCCCCNCCCN [Compound 48, D-Lys-ε-(octadecanyl)-N^1-spermine]",,,3.08 µM,prevention of LPS-induced NO release from J774.A1 macrophages [2]: high activity; prevention of LPS-induced NFκβ cytokine release from stimulated lymphocytes [3]: high activity
"CCCCCCCC(=O)NCCCCC(N)C(=O)NCCCNCCCCNCCCN [Compound 17, L-Lys-ε-(octanoyl)-N^1-spermine]",13 µM,160 µM,,"IC50 [2, 7]: 162 µM"
"NCCCNCCCCNCCCNC(=O)C(N)CCCCNC(=O)CCCc1ccc2ccc3cccc4ccc1c2c34 [Compound 22, L-Lys-ε-(4-(1-pyrene)-butanoyl)-N^1-spermine]",7.1 µM and 7.09 µM,,,"IC50 [2, 7]: 108 µM; IC50 [2, 8]: > 100 µM"
"CC(C)(C)CCNCCCCC(N)C(=O)NCCCNCCCCNCCCN [Compound 34, D-Lys-ε-(3,3-dimethyl-1-butyl)-N^1-spermine]",10.9 µM,,,"IC50 [2, 7]: 838 µM"
CCCCCCCNCCCCC(N)C(=O)NCCCNCCCCNCCCN (stereo not drawn) [Compound 28],3.86 µM,,,"IC50 [2, 7]: 82.3 µM"
CCCCCCCNCCCCC(N)C(=O)NCCCNCCCCNCCCN (stereo not drawn) [Compound 29],5.99 µM,46 µM,,"IC50 [2, 7]: 46.4 µM"
CC(C)(C)CCNCCCCC(N)C(=O)NCCCNCCCCNCCCN (stereo not drawn) [Compound 33],12.1 µM,> 1000 µM,,
"CCCCCCCCCCCCCCCCC(=O)NCCCCC(N)C(=O)NCCCNCCCCNCCCN [Compound 11, L-Lys-ε-(heptadecanoyl)-N^1-spermine]",6.71 µM,4.49 µM,,
"CCCCCCCN(CCCCCCC)CCCC[C@H](N)C(=O)NCCCNCCCCNCCCN [Compound 30, L-Lys-ε-(bis-(n-heptyl))-N^1-spermine]",2.14 µM,,,"IC50 [2, 7]: 38.8 µM"

Structure (SMILES),EC50 [1],"IC50 [2, 4]","IC50 [2, 5]",further results
"CCCCCCCCCCCCCCCC(=O)NCCCCC(N)C(=O)NCCCNCCCCNCCCN [Compound 13, D-Lys-ε-(palmitoyl)-N^1-spermine]",10 µM and 9.94 µM,,13 µM,"IC50 [2, 7]: 2.29 µM"
"NCCCNCCCCNCCCNC(=O)C(N)CCCCN(CC1CCCCC1)CC1CCCCC1 [Compound 38, L-Lys-ε-(bis-(cyclohexyl))-N^1-spermine]",4 µM and 4.04 µM,,,"IC50 [2, 7]: > 1000 µM"
CCCCCCCCCCCCCCNCCCCC(N)C(=O)NCCCNCCCCNCCCN (stereo not drawn) [Compound 43],,,6.17 µM,
"CCCCCCCCCCCCCCCCS(=O)(=O)NCCCCC(N)C(=O)NCCCNCCCCNCCCN [Compound 12, L-Lys-ε-(hexadecanesulfonamide)-N^1-spermine]",5.93 µM,,,
CCCCCCCCCCCCCCCCCCCCNCCCCC(N)C(=O)NCCCNCCCCNCCCN (stereo not drawn) [Compound 49],,,2.2 µM,
CCCCCCCCCCCCCCNCCCCC(N)C(=O)NCCCNCCCCNCCCN (stereo not drawn) [Compound 46],,,5.34 µM,
CCCCCCCCCCCCCCCCCCCCNCCCCC(N)C(=O)NCCCNCCCCNCCCN (stereo not drawn) [Compound 45],,,3.67 µM,
"CCCCCCCCCCCCCCCCCCNCCCC[C@H](N)C(=O)NCCCNCCCCNCCCN [Compound 44, L-Lys-ε-(octadecanyl)-N^1-spermine]",,,2.25 µM,prevention of LPS-induced NO release from J774.A1 macrophages [2]: high activity; prevention of LPS-induced NFκβ cytokine release from stimulated lymphocytes [3]: high activity
"COCCOCCOCC(=O)NCCCCC(N)C(=O)NCCCNCCCCNCCCN [Compound 24, L-Lys-ε-(2-[2-(2-methoxyethoxy)ethoxy]acetoyl)-N^1-spermine]",572 µM,> 1000 µM,,"IC50 [2, 6]: > 1000 µM"
CC(C)=CCC[C@H](C)CCNCCCCC(N)C(=O)NCCCNCCCCNCCCN (stereo partly drawn) [Compound 32],9.6 µM and 9.55 µM,> 1000 µM,,
CCCCCCCCCCCCCCCCNCCCCCC(=O)NCCCNCCCCNCCCN [Compound 55],,,6.12 µM,
"NCCCNCCCCNCCCNC(=O)C(N)CCCCNC(=O)c1ccc(-c2ccccc2)cc1 [Compound 21, D-Lys-ε-(4-biphenycarboxamide)-N^1-spermine]",7.9 µM and 7.86 µM,,,"IC50 [2, 7]: 124 µM; IC50 [2, 8]: > 100 µM"
CCCCCCCCCCCCCC(=O)NCCCCC(N)C(=O)NCCCNCCCCNCCCN (stereo not drawn) [Compound 41],,,26 µM,
CCCCCCCCCCCCCCCCCCCC(=O)NCCCCCC(=O)NCCCNCCCCNCCCN [Compound 53],,,26.6 µM,
CCCC/C=C/CCCCCCCCCC(=O)NCCCCC(N)C(=O)NCCCNCCCCNCCCN (stereo not drawn) [Compound 15],3.8 µM and 3.82 µM,,,"IC50 [2, 7]: 8.85 µM; IC50 [2, 8]: 8.8 µM"
CC(C)(C)C(=O)NCCCCC(N)C(=O)NCCCNCCCCNCCCN (stereo not drawn) [Compound 19],327 µM,> 1000 µM,,
"NCCCNCCCCNCCCNC(=O)C(N)CCCCNCc1ccc(-c2ccccc2)cc1 [Compound 39, D-Lys-ε-(4-phenylbenzyl)-N^1-spermine]",3.7 µM and 3.71 µM,,,"IC50 [2, 7]: 105 µM; IC50 [2, 8]: > 100 µM"
CCCCCCCCCCCCCCCCCC(=O)NCCCCCC(=O)NCCCNCCCCNCCCN [Compound 52],,,29.6 µM,
CCCCCCCCCCCCCCCCNCCCCC(N)C(=O)NCCCNCCCCNCCCN (stereo not drawn) [Compound 47],,,6.89 µM,
CCCCCCCCCCCCCCCCCCCC(=O)NCCCCC(N)C(=O)NCCCNCCCCNCCCN (stereo not drawn) [Compound 42],,,5.77 µM,
CCCCCCCCCCCCCCCCCCNCCCCCC(=O)NCCCNCCCCNCCCN [Compound 56],,,5.34 µM,
